PubChem BioAssay (NCI)
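48-hour exposure; five concentrations; linearly interpolated endpoints. Here, GI50 denotes the concentration required for 50% inhibition of growth. TGI denotes the concentration required for complete inhibition of growth.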

Tests used:
Assay in all cases: inhibition of tumour cell growth, NCI panel, 48 h
UACC-257 melanoma = tested on: UACC-257 melanoma
ACHN renal = tested on: ACHN renal
PC-3 prostate = tested on: PC-3 prostate
UO-31 renal = tested on: UO-31 renal
HCT-116 colon = tested on: HCT-116 colon
NCI-H522 lung = tested on: NCI-H522 lung
NCI/ADR-RES ovarian = tested on: NCI/ADR-RES ovarian
MALME-3M melanoma = tested on: MALME-3M melanoma
HS 578T breast = tested on: HS 578T breast
786-0 renal = tested on: 786-0 renal
OVCAR-4 ovarian = tested on: OVCAR-4 ovarian
UACC-62 melanoma = tested on: UACC-62 melanoma
SF-295 CNS = tested on: SF-295 CNS
SN12C renal = tested on: SN12C renal
TK-10 renal = tested on: TK-10 renal
HL-60(TB) leukemia = tested on: HL-60(TB) leukemia
BT-549 breast = tested on: BT-549 breast
SK-MEL-5 melanoma = tested on: SK-MEL-5 melanoma
NCI-H226 lung = tested on: NCI-H226 lung
RPMI-8226 leukemia = tested on: RPMI-8226 leukemia
KM12 colon = tested on: KM12 colon
SF-539 CNS = tested on: SF-539 CNS
M14 melanoma = tested on: M14 melanoma
A549 NSCLC = tested on: A549 NSCLC
OVCAR-3 ovarian = tested on: OVCAR-3 ovarian
SK-MEL-28 melanoma = tested on: SK-MEL-28 melanoma
OVCAR-8 ovarian = tested on: OVCAR-8 ovarian
MCF7 breast = tested on: MCF7 breast
HCT-15 colon = tested on: HCT-15 colon
MOLT-4 leukemia = tested on: MOLT-4 leukemia
SK-OV-3 ovarian = tested on: SK-OV-3 ovarian
A498 renal = tested on: A498 renal
LOX IMVI melanoma = tested on: LOX IMVI melanoma
HCC-2998 colon = tested on: HCC-2998 colon
IGROV1 ovarian = tested on: IGROV1 ovarian
SNB-19 CNS = tested on: SNB-19 CNS
SK-MEL-2 melanoma = tested on: SK-MEL-2 melanoma
SNB-75 CNS = tested on: SNB-75 CNS
NCI-H460 lung = tested on: NCI-H460 lung
DU-145 prostate = tested on: DU-145 prostate
CAKI-1 renal = tested on: CAKI-1 renal
NCI-H23 lung = tested on: NCI-H23 lung
SF-268 CNS = tested on: SF-268 CNS
CCRF-CEM leukemia = tested on: CCRF-CEM leukemia
K-562 leukemia = tested on: K-562 leukemia
MDA-MB-231 breast = tested on: MDA-MB-231 breast
HT29 colon = tested on: HT29 colon
U251 CNS = tested on: U251 CNS
SW-620 colon = tested on: SW-620 colon
SR leukemia = tested on: SR leukemia
HOP-62 NSCLC = tested on: HOP-62 NSCLC
COLO 205 colon = tested on: COLO 205 colon

COc1ccc2c(C3=C(c4cn(C)c5ccccc45)C(=O)NC3=O)cn(C)c2c1
GI50 (UACC-257 melanoma): 1.61 µM | TGI (UACC-257 melanoma): > 25 µM | GI50 (ACHN renal): 0.254 µM | TGI (ACHN renal): > 25 µM | GI50 (PC-3 prostate): 0.0936 µM | TGI (PC-3 prostate): > 25 µM | GI50 (UO-31 renal): 3.69 µM | TGI (UO-31 renal): > 25 µM | GI50 (HCT-116 colon): 0.112 µM | TGI (HCT-116 colon): > 25 µM | GI50 (NCI-H522 lung): 0.0742 µM | TGI (NCI-H522 lung): 0.902 µM | GI50 (NCI/ADR-RES ovarian): 0.0928 µM | TGI (NCI/ADR-RES ovarian): > 25 µM | GI50 (MALME-3M melanoma): > 25 µM | TGI (MALME-3M melanoma): > 25 µM | GI50 (HS 578T breast): 0.113 µM | TGI (HS 578T breast): > 25 µM | GI50 (786-0 renal): 0.255 µM | TGI (786-0 renal): > 25 µM | GI50 (OVCAR-4 ovarian): 0.258 µM | TGI (OVCAR-4 ovarian): > 25 µM | GI50 (UACC-62 melanoma): 0.137 µM | TGI (UACC-62 melanoma): > 25 µM | GI50 (SF-295 CNS): 0.0649 µM | GI50 (SN12C renal): 0.221 µM | TGI (SN12C renal): > 25 µM | GI50 (TK-10 renal): > 25 µM | TGI (TK-10 renal): > 25 µM | GI50 (HL-60(TB) leukemia): 0.0998 µM | TGI (BT-549 breast): > 25 µM | GI50 (SK-MEL-5 melanoma): 0.0899 µM | TGI (SK-MEL-5 melanoma): 2.57 µM | GI50 (NCI-H226 lung): 2.63 µM | TGI (NCI-H226 lung): > 25 µM | GI50 (RPMI-8226 leukemia): 0.11 µM | TGI (RPMI-8226 leukemia): > 25 µM | GI50 (KM12 colon): 0.111 µM | TGI (KM12 colon): 7.24 µM | GI50 (SF-539 CNS): 0.0556 µM | TGI (SF-539 CNS): 0.134 µM | GI50 (M14 melanoma): 0.0999 µM | TGI (M14 melanoma): > 25 µM | GI50 (A549 NSCLC): 0.135 µM | TGI (A549 NSCLC): > 25 µM | GI50 (OVCAR-3 ovarian): 0.0841 µM | TGI (OVCAR-3 ovarian): 1.03 µM | GI50 (SK-MEL-28 melanoma): 0.166 µM | TGI (SK-MEL-28 melanoma): > 25 µM | GI50 (OVCAR-8 ovarian): 0.15 µM | TGI (OVCAR-8 ovarian): > 25 µM | GI50 (MCF7 breast): 0.0853 µM | TGI (MCF7 breast): > 25 µM | GI50 (HCT-15 colon): 0.116 µM | TGI (HCT-15 colon): > 25 µM | GI50 (MOLT-4 leukemia): 0.24 µM | TGI (MOLT-4 leukemia): > 24 µM | GI50 (SK-OV-3 ovarian): 0.138 µM | TGI (SK-OV-3 ovarian): > 25 µM | GI50 (A498 renal): 0.054 µM | TGI (A498 renal): 0.215 µM | GI50 (LOX IMVI melanoma): 0.154 µM | TGI (LOX IMVI melanoma): > 25 µM | GI50 (HCC-2998 colon): 0.41 µM | TGI (HCC-2998 colon): > 25 µM | GI50 (IGROV1 ovarian): 0.147 µM | TGI (IGROV1 ovarian): > 25 µM | GI50 (SNB-19 CNS): > 25 µM | TGI (SNB-19 CNS): > 25 µM | GI50 (SK-MEL-2 melanoma): 0.597 µM | TGI (SK-MEL-2 melanoma): > 9.97 µM | GI50 (SNB-75 CNS): 0.0567 µM | TGI (SNB-75 CNS): > 25 µM | GI50 (NCI-H460 lung): 0.0982 µM | TGI (NCI-H460 lung): > 25 µM | GI50 (DU-145 prostate): 0.137 µM | TGI (DU-145 prostate): > 25 µM | GI50 (CAKI-1 renal): 0.0941 µM | TGI (CAKI-1 renal): > 25 µM | GI50 (NCI-H23 lung): 0.143 µM | TGI (NCI-H23 lung): > 25 µM | GI50 (SF-268 CNS): 0.292 µM | TGI (SF-268 CNS): > 25 µM | GI50 (CCRF-CEM leukemia): 0.0961 µM | TGI (CCRF-CEM leukemia): > 25 µM | GI50 (K-562 leukemia): 0.101 µM | TGI (K-562 leukemia): > 25 µM | GI50 (MDA-MB-231 breast): 0.542 µM | TGI (MDA-MB-231 breast): > 25 µM | GI50 (HT29 colon): 0.098 µM | TGI (HT29 colon): > 14 µM | GI50 (U251 CNS): 0.102 µM | TGI (U251 CNS): > 25 µM | GI50 (SW-620 colon): 0.104 µM | TGI (SW-620 colon): > 25 µM | GI50 (SR leukemia): 0.0717 µM | TGI (SR leukemia): > 25 µM | GI50 (HOP-62 NSCLC): 0.122 µM | TGI (HOP-62 NSCLC): > 25 µM | GI50 (COLO 205 colon): 0.0917 µM | TGI (COLO 205 colon): 0.323 µM
